The test system of data set [1] is Mexican avocados. Kind of data set: Respiration rate (CO2 release) of Mexican avocados. Format: in vivo, avocado. Particulars: for cumulative respiration factor (RF): Example 3. The text has this: (§1) As used herein, the “respiration rate” of a product such as produce (e.g., a produce unit) refers to the rate at which the product releases CO2, and more specifically is the volume of CO2 (at standard temperature and pressure) released per unit time per unit mass of the product. In some embodiments, the respiration rate of a product can be measured by placing the product in a closed container of known volume that is equipped with a CO2 sensor, recording the CO2 concentration within the container as a function of time, and then calculating the rate of CO2 release required to obtain the measured concentration values. In some cases, the respiration rate of multiple produce units in a volume (e.g., a sealed or semi-sealed volume) is measured in a single measurement (e.g., as an average). It is understood that respiration rate may be determined by indirect methods, including, but not limited to, hyperspectral imaging, NIR, and other imaging or characterization processes.
As used herein, the term “respiration factor” is defined as the ratio of the cumulative respiration of uncoated produce (measured for a control group) to the cumulative respiration of the corresponding coated produce.
(§2) Four groups of 180 (i.e., 3 sets of 60) Mexican avocados were analyzed over four days. One group received no 1-MCP, and the other group was exposed for eight hours to 1-MCP using 2, 4, or 6 packets of 1-MCP (immobilized in cyclodextrin at 0.014%) per set. Each packet was wetted with water, and then placed in a sealed 30 L container along with 1 set of 60 avocados. The avocados were left in the sealed container for 8 hr. After 8 hours, the avocados were removed and the respiration rate was measured over the course of 4 days. Additionally, the firmness of the avocados (represented as durometer stage) was measured using a durometer.
(§3) Three groups of 60 Mexican avocados were analyzed over three days at ambient temperature. One group received no treatment. One group of avocados at stage 1 (i.e., after day 0) was exposed to 1-MCP for approximately 8 hours. One group of avocados at stage 3 (i.e., after day 2) was exposed to 1-MCP for approximately 8 hours. The respiration rate of the avocados was measured over the course of 3 days.
(§4) Three groups of 120 Mexican avocados were analyzed over about 5 days. One group received no treatment. One group was exposed to 1-MCP for 8 hours immediately after removal from cold storage at 4.5° C. (“cold 1-MCP”). One group was exposed to 1-MCP for 8 hours after the avocados spent 2 hours at ambient temperature (“semi-cold 1-MCP”). One group was exposed to 1-MCP for 8 hours after the avocados spent 6 hours at ambient temperature (“ambient 1-MCP”). The respiration rate of the avocados was measured over the course of 5 days. The firmness of the avocados was measured using a durometer.
Four groups of Mexican avocados were analyzed in order to investigate the minimum respiration peak that Mexican avocadoes should reach in order to ripen without quality issues. One group received no treatment. One group was treated with 1 layer of physical treatment (by bowl dipping and ambient drying; physical treatment A at 30 g/L with 3 g/L glycerol monocaprate). […] The respiration rate of the avocados was measured daily for three weeks. […]
To determine the difference in performance for treating avocados on a brush bed at varying concentrations before or after they have been put in ripening rooms, four flats of Mexican avocados were analyzed. […]

The test system of data set [2] is Mexican avocados. In words: Firmness / durometer stage of Mexican avocados. Format: in vivo, avocado. How it is done: In some embodiments, a stage of a produce unit (e.g., an avocado) is based on firmness, and can be measured in shores (e.g., using a durometer) and/or pounds of pressure (e.g., using a penetrometer), then correlated to a stage. In some embodiments, a stage of a produce unit can be based on other parameters, such as respiration rate and/or color).
as §2, §3, §4
(§5) To determine the difference in performance for treating avocados on a brush bed at varying concentrations before or after they have been put in ripening rooms, four flats of Mexican avocados were analyzed. One flat received no treatment. The other three flats were treated with physical treatment A at 12, 22, and 32 g/L, respectively, applied using brush bed system and subsequently dried at 50° C. Avocados treated with physical treatment A were also triggered with ethylene, either before or after treatment with physical treatment A. The respiration rate of the avocados was measured. The firmness of the avocados was measured using a durometer.

Data set [3] deals with Mexican avocados. Kind of data set: Quality defects of ripened Mexican avocados. It is filed as in vivo, avocado. The protocol:
as §2, §3, §5

Data set [4] has as its system Cucumbers. In words: Mass loss rate of cucumbers. Format: in vivo, cucumber. To be noted: 20° C., 5 days. How it is done: (§6) As used herein, the “mass loss rate” refers to the rate at which the product loses mass (e.g. by releasing water and other volatile compounds). The mass loss rate is typically expressed as a percentage of the original mass per unit time (e.g., percent per day).
(§7) Cucumbers were analyzed in the presence (2 ppm) and absence (0 ppm) of exogenous ethylene at 20° C. for 5 days. Four groups of cucumbers were analyzed. One group received no treatment. One group was treated with a chemical treatment (i.e., 1-MCP). One group was treated with a physical treatment A (40 g/L). One group was treated with both a chemical treatment (i.e., 1-MCP) and physical treatment A (40 g/L). The respiration rate and the mass loss rate of the cucumbers was measured

Data set [5] deals with Cucumbers. Kind of data set: Respiration rate of cucumbers. It is filed as in vivo, cucumber. To be noted: 20° C., 5 days.
From the text: as §1
Cucumbers were analyzed in the presence (2 ppm) and absence (0 ppm) of exogenous ethylene at 20° C. for 5 days. Four groups of cucumbers were analyzed. One group received no treatment. One group was treated with a chemical treatment (i.e., 1-MCP). One group was treated with a physical treatment A (40 g/L). […] The respiration rate and the mass loss rate of the cucumbers was measured

For data set [6], the system named is Cucumbers. In words: Aesthetics (yellowing, shrivel) of cucumbers. Particulars: 5 days exposure to exogenous ethylene (2 ppm). Format: in vivo, cucumber. How it is done: as §7
Data set [7] has as its system Persian limes. Kind of data set: Mass loss rate of Persian limes. Format: in vivo, Persian lime. Particulars: not exposed to ethylene and in the presence of 2 ppm ethylene, 20° C., 5 days. How it is done:
as §6
(§8) Persian limes were analyzed in the presence (2 ppm) and absence (0 ppm) of exogenous ethylene at 20° C. for 5 days. Four groups of limes were analyzed. One group received no treatment. One group was treated with 1-MCP. One group was treated with physical treatment A (40 g/L). One group was treated with both 1-MCP and physical treatment A (40 g/L). The respiration rate of the limes was measured. The mass loss rate of the limes was measured.

In data set [8] the test system is Persian limes. Kind of data set: Aesthetics (yellowing) of Persian limes. It is filed as in vivo, Persian lime. To be noted: over a 5 day period; same trends with 2 ppm ethylene. The protocol: as §8
Setting [9] is: Example 3, semi-cold and ambient 1-MCP.
Setting [10] is: Example 1, once allowed to ripen (about two weeks), 6 packets 1-MCP.

As for `CC1=CC1` [1-MCP, 1-methylcyclopropene], the respiration rate entry with Mexican avocados [1] (Example 1, exposed 8 hr to 2, 4 or 6 packets 1-MCP (in cyclodextrin at 0.014%) in sealed 30 L container, measured over 4 days) is “high upon removal but quickly decreased and continued to decrease through 4 days post-exposure”; in the data set on Cucumbers [5] (absence of ethylene), “did not lower the overall respiration rate”; in the data set on Cucumbers [5] (exposed to ethylene (2 ppm)) it was “mitigated the corresponding increase in respiration rate”. Besides, in the data set on Mexican avocados [1] (Example 2, 1-MCP exposure at stage 1), the CO2 production result is “continuous decrease in CO2 production, back to day 0 levels”. The “cumulative respiration factor (RF)” value with Mexican avocados [1] (cold 1-MCP: exposed 8 hours immediately after removal from 4.5° C. storage) turned out to be 1.8 ×; with Mexican avocados [1] (semi-cold (2 hours at ambient) and ambient (6 hours at ambient) 1-MCP exposure, 8 hours), 2.5 ×. Besides, the “RF (respiration factor)” value with Mexican avocados [1] (Example 7, 1-MCP 8 hours, regardless of subsequent ethylene exposure (24 hours at 200 ppm)) was 1.62 ×. Besides, in the data set on Mexican avocados [2] (Example 1, 6 packets of 1-MCP, day 4 (untreated stage 5)), the durometer stage is recorded as 1.5. Also, the softening rate entry with Mexican avocados [2] (Example 2, 1-MCP applied at stage 3) is listed as “slight effect”. In addition, the ripening entry is “ripening behavior was still observed” in the data set on Mexican avocados [2] (Example 3, cold 1-MCP) and “did not ripen effectively” with Mexican avocados [2] (setting [9]). In addition, the “ripening stage relative to control group” value with Mexican avocados [2] (Example 3, cold 1-MCP, by the time the control group reached stage 5) was “over two stages behind the control group”. Moreover, the softening rate reduction result with Mexican avocados [2] (setting [9]) is recorded as “greater softening rate reduction than cold 1-MCP”. In addition, the “checkerboarding (high variability of stage of ripeness)” value in the data set with Mexican avocados [3] (Example 1) is given as “observed”. Further, the “feel of the avocados” value in the data set with Mexican avocados [3] (Example 1) was “spongy”. The “incidence of flesh adhesion” value in the data set on Mexican avocados [3] (setting [10]) was more than 30%. Moreover, the incidence of mold in the data set on Mexican avocados [3] (setting [10]) was more than 25%. Moreover, the internal quality result in the data set on Mexican avocados [3] (Example 2) is recorded as “did not improve internal quality”. In the data set on Mexican avocados [3] (Example 2, 1-MCP at stage 1 or stage 3, approximately 40 shore), the “incidence of mold and vascular browning” value is 15-25%. Also, the values for the mass loss rate entry in the data set with Cucumbers [4] (absence of ethylene), in the data set with Cucumbers [4] (presence of ethylene (2 ppm)) and in the data set on Persian limes [7] were “no impact”, “lowered the mass loss rate” and “no significant impact”, respectively. The yellowing result with Cucumbers [6] is on record as “greater positive impact on the rate of yellowing”. Further, in the data set on Persian limes [8], the yellowing / aesthetics result was “reduced the yellowing”.

(Values after patent US20220039416A1, “METHODS OF CONTROLLING THE RIPENING OF AGRICULTURAL PRODUCTS” (Apeel Technology, Inc., priority 2020, published 2022).)
